Tests used:
TrtA = target: T1, TrtA (Herbaspirillum sp. BH-1, UniProt A0A2N6JFX7); experiment: inhibition of triuret hydrolysis; assay type: biochemical; conditions: likely competitive; Ki not determinable because biuret contains about 1 mol% triuret; inhibition only above 50 mM, where TrtA precipitates; tag state not stated
T1 construct: N-terminal 6xHis tag and thrombin site kept, pET28a, E. coli BL21(DE3), codon-optimized; subunit 24 kDa, homodimer
T1 sequence (A0A2N6JFX7 1-227): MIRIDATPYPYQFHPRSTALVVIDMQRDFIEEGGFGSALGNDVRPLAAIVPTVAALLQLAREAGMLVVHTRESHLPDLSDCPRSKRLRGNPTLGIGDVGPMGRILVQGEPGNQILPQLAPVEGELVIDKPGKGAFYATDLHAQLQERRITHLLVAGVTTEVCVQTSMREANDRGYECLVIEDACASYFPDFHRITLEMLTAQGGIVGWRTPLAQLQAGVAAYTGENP

RhdBiuH = target: T2, RhdBiuH (Rhodococcus sp. Mel, UniProt H8ZKV9, C169S); experiment: X-ray crystal structure; assay type: binding; conditions: cocrystal with biuret; active site; inactive mutant
T2 construct: recombinant

[1] = target: T3, CtermDelΔ7+Cleaved His-tag (Herbaspirillum sp. BH-1, UniProt A0A2N6JFX7); experiment: ammonia release, Berthelot assay; assay type: biochemical; conditions: phosphate buffer, pH 8, 25 °C
T3 construct: gene trtA
Source text: ammonia release, Berthelot assay on CtermDelΔ7+Cleaved His-tag

T2 sequence (H8ZKV9 entry or part of it C169S): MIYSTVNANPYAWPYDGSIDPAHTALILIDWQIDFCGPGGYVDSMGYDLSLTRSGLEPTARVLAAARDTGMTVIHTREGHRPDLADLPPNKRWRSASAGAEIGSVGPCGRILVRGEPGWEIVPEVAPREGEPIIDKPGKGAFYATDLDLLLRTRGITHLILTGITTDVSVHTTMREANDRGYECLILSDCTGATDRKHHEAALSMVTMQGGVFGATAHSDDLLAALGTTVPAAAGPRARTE

Row | SMILES | inhibition of triuret hydrolysis (TrtA) | X-ray crystal structure (RhdBiuH) | Km [1] [µM]
1 | NC(=O)NC(N)=O [biuret] | Inhibition data suggests that biuret is a competitive inhibitor | The cocrystal with biuret showed similar mode of binding to that of BiuH | –
2 | NC(=O)NC(=O)NC(N)=O [triuret] | – | – | 16 ± 2
